Here are results for two compounds from US20250042880A1 (UNIVERSITY OF KENTUCKY RESEARCH FOUNDATION, priority 2021, published 2025).

Broadly, the IC50 is the midpoint of a concentration-inhibition curve. High values mean weaker potency in that assay, low ones greater potency in that assay.

Data set [1] has as its system HCT116 cells. As to the kind of experiment: Cell proliferation inhibition assay, HCT116. Type of data set: cell-based. As to conditions: Homo sapiens, HCT-116, 120 h; 5 days, viable cells counted. The protocol:
(§1) Cell proliferation inhibition assay-Cell proliferation inhibition assay was performed as previously reported (48). All compounds to be tested were dissolved at 10 mM in DMSO. The cells were seeded into 12-well plates at a density of 40,000 cells per well in 1 mL of culture medium and were cultured overnight at 37° C. Either 1 μL of the compounds or the vehicle control (DMSO) was added to the cells. After 5 days, the medium was removed, and 200 μL of 0.25% trypsin was added. The cells were resuspended in 800 μL phosphate-buffered saline (PBS) and counted with Vi-CELL XR 2.03 (Beckman Coulter, Inc. USA). The ratio R of the number of viable cells in the compound-treated group to the number of viable cells in the DMSO-treated group was called relative growth rate, and the growth inhibition was calculated as (1−R)*100.
(§2) Cell proliferation inhibition assay was conducted according to a previous report (48). The cells were split into 12-well plates at a density of 40,000 cells per well in 1 mL of culture medium and were cultured overnight at 37° C. Either 1 μL of the compounds dissolved at 10 mmol/L in DMSO or the vehicle control (DMSO) was added to the cells. After 5 days, removed the medium, and 200 μL of 0.25% trypsin was added. The cells were resuspended in phosphate-buffered saline (PBS) and counted with Vi-CELL XR 2.03 (Beckman Coulter, Inc. USA). The ratio R of the number of viable cells in the compound treatment group to the number of viable cells in the DMSO treatment group was defined as the relative growth rate, and the growth inhibition rate was calculated as (1−R)*100.

For data set [2], the system named is LS174T cells. Nature of the data set: Cell proliferation inhibition assay, LS174T. As to conditions: for IC50: Homo sapiens, LS174T, 120 h, 5 days, viable cells counted. Type of data set: cell-based. The protocol: as §1, §2
For data set [3], the system named is LS174T cells. As to the kind of experiment: Apoptosis by flow cytometry (Annexin V-FITC/PI). It counts as cell-based. As to conditions: 24 h, DBI-6 3 μM, BAY-876 1 μM, DMSO 17.28%. The method, then:
LS174T cells were cultured in 6-well plates at 37° C. for 24 hours. 3 μmol/L DBI-6 or 1 μmol/L BAY-876 were added to the cells and incubated for 24 hours. Cells of combination therapy group were treated with both DBI-6 and BAY-876. Then cells were harvested and washed with cold PBS twice and resuspended in 500 μL Binding Buffer. SubsequenμLy, the cells were stained with Annexin V-FITC and propidium iodide (PI) and incubated in dark for 5 minutes. The percentages of apoptosis and necrosis were determined by flow cytometry (BeckmanCoulter, Brea, CA, USA).
(Flow cytometry measures light scatter and fluorescence of single cells or particles in a stream.)

Data set [4] concerns BT549, MDA-MB-436 and HCC70. As to conditions: 3 μM; cited from earlier work.
Data set [5] has as its system LS174T xenografts. Nature of the data set: LS174T xenografts in Rag1 mice. It counts as in vivo, mouse. As to conditions: DBI-6 40 mg/kg/day IP, BAY-876 3 mg/kg oral, 12 days. From the text: Rag1 mice of 6 to 8 weeks of age were kindly provided by Institute of Genetics and Developmental Biology, Chinese Academy of sciences. LS174T cells in exponential growth phase were harvested and mixed with an equal volume of Matrigel (Corning, Glendale, Arizona). Each mouse was subcutaneously injected on the lower flanks with 2×10^6 cells. Tumor cell-injected mice were randomly divided into control and treatment groups when tumors were established and reached an average volume of 100 mm^3 (3 male and 3 female mice/group, two tumors on each mouse).
After tumors were established, DBI-6 was formulated in a mixture of ethanol (5%), 20% solutol and 20% Cremophor EL (50%) and Citric acid (45%; 50 mmol/L, pH4.5) and was daily intraperitoneally administered to the DBI-6 group at dose of 40 mg/kg mouse body weight. BAY-876 was dissolved in DMSO (10%), PEG400 (25%), Tween 80 (5%) and PBS (60%) and was given to the mice by gavage feeding to the BAY-876 group at a daily dose of 3 mg/kg mouse body weight. […]
The tumor sizes and mouse weights were measured every three days with calipers, and the tumor volume (Length×width^2/2) were calculated. […] Then the tumor sections were analyzed with H&E and Ki-67 staining. Plasma was collected and analyzed with the assay kit (Jiancheng Bioengineering Institute, Nanjing, China) according to the manufacturer's protocol. […]

Data set [6] concerns SKOV-3 ovarian cancer xenograft. As to conditions: 4.5 mg/kg/day for 4 weeks; cited from earlier work.

The structures appear in SMILES notation.

With `Cc1c(NC(=O)c2cc(C(N)=O)nc3cc(F)ccc23)c(C(F)(F)F)nn1Cc1ccc(C#N)cc1` [BAY-876, N^4-[1-(4-cyanobenzyl)-5-methyl-3-(trifluoromethyl)-1H-pyrazol-4-yl]-7-fluoroquinoline-2,4-dicarboxamide], the IC50 in data set [1] was determined as 170 nM. Further, in data set [2], the “inhibition of proliferation of LS174T cells” value is reported as “inhibited the proliferation of these cell lines at nanomolar concentrations” and half-maximal inhibition (IC50) required 130 nM. The “apoptosis rate (percentage of apoptotic cells)” value in data set [3] is given as 34.57%. Further, the “growth of TNBC cell lines BT549, MDA-MB-436 and HCC70” value in data set [4] is “did not inhibit the growth”. Also, the tumor growth result in data set [5] is reported as “Tumor growth was inhibited”. Moreover, in data set [6], the “average weight loss compared to the control group” value was 18%, the “reduction of average tumor volumes” value is on record as 68% and the “reduction of tumor weights” value was 66%.
Regarding `O=c1c(-c2ccc(Cl)c(Cl)c2)coc2cc(OCCN3CCN(CCO)CC3)ccc12` [DBI-6, 3-(3,4-dichlorophenyl)-7-(2-(4-(2-hydroxyethyl)piperazin-1-yl)ethoxy)-4H-chromen-4-one], the IC50 came out at 530 nM in data set [1] and 1140 nM in data set [2]. In data set [3], the “apoptosis rate (percentage of apoptotic cells)” value is given as 30.61%. The tumor growth entry in data set [5] is “Tumor growth was inhibited”.
